Measured values reported in PubChem BioAssay AID192 (DTP/NCI, 2004).
“And” between values parts separate entries of the source, which are not always exact repeats. Equal values may be shown once. Inconclusive results and toxic doses are left out.

Tested on: BDF1 mice, B16 melanoma ip, median survival T/C
Experiment: NCI In Vivo Anticancer Drug Screen. Data for tumor model B16 Melanoma (intraperitoneal) in B6D2F1 (BDF1) mice
Conditions: endpoint: median survival time, higher = longer survival
Summary of the method: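 Compounds were tested in mice carrying transplantable tumors. Survival or tumor size was recorded, and each value is the treated-group measurement (T) divided by that of the vehicle-treated control group (C).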

[1] = dose: 25.0 mg/kg/injection, schedule: Q01DX009 (ip), vehicle: saline
[2] = dose: 50.0 mg/kg/injection, schedule: Q01DX009 (ip), vehicle: saline
[3] = dose: 100.0 mg/kg/injection, schedule: Q01DX009 (ip), vehicle: saline
[4] = dose: 100.0 mg/kg/injection, schedule: Q01DX009 (ip), vehicle: Klucel (hydroxypropylcellulose) (HPC)
[5] = dose: 200.0 mg/kg/injection, schedule: Q01DX009 (ip), vehicle: Klucel (hydroxypropylcellulose) (HPC)
[6] = dose: 400.0 mg/kg/injection, schedule: Q01DX009 (ip), vehicle: Klucel (hydroxypropylcellulose) (HPC)
[7] = dose: 6.25 mg/kg/injection, schedule: Q01DX009 (ip), vehicle: saline
[8] = dose: 12.5 mg/kg/injection, schedule: Q01DX009 (ip), vehicle: saline
[9] = dose: 50.0 mg/kg/injection, schedule: Q01DX009 (ip), vehicle: Klucel (hydroxypropylcellulose) (HPC)
[10] = dose: 25.0 mg/kg/injection, schedule: Q01DX009 (ip), vehicle: saline with Tween-80
[11] = dose: 50.0 mg/kg/injection, schedule: Q01DX009 (ip), vehicle: saline with Tween-80
[12] = dose: 100.0 mg/kg/injection, schedule: Q01DX009 (ip), vehicle: saline with Tween-80
[13] = dose: 200.0 mg/kg/injection, schedule: Q01DX009 (ip), vehicle: saline with Tween-80
[14] = dose: 100.0 mg/kg/injection, schedule: Q04DX003 (ip), vehicle: Klucel (hydroxypropylcellulose) (HPC)
[15] = dose: 200.0 mg/kg/injection, schedule: Q04DX003 (ip), vehicle: Klucel (hydroxypropylcellulose) (HPC)
[16] = dose: 400.0 mg/kg/injection, schedule: Q04DX003 (ip), vehicle: Klucel (hydroxypropylcellulose) (HPC)

SMILES: CCC1(O)CC2CN(CCc3c([nH]c4ccccc34)C(C(=O)OC)(c3cc4c(cc3OC)N(C)C3C(O)(C(=O)NCCO)C(O)C5(CC)C=CCN6CCC43C65)C2)C1 (stereo not drawn)
- T/C (dose: 0.2 mg/kg/injection, schedule: Q01DX009 (ip), vehicle: saline): 164 % of control
- T/C (dose: 0.22 mg/kg/injection, schedule: Q01DX009 (ip), vehicle: water): 121 % of control
- T/C (dose: 0.36 mg/kg/injection, schedule: Q01DX009 (ip), vehicle: water): 162 % of control
- T/C (dose: 0.4 mg/kg/injection, schedule: Q01DX009 (ip), vehicle: saline): 191 % of control
- T/C (dose: 0.6 mg/kg/injection, schedule: Q01DX009 (ip), vehicle: water): 161 % of control
- T/C (dose: 0.8 mg/kg/injection, schedule: Q01DX009 (ip), vehicle: saline): 218 % of control
- T/C (dose: 1.0 mg/kg/injection, schedule: Q04DX003 (ip), vehicle: saline): 155 % of control
- T/C (dose: 1.04 mg/kg/injection, schedule: Q01DX001 (ip), vehicle: water): 121 % of control
- T/C (dose: 1.44 mg/kg/injection, schedule: Q04DX003 (ip), vehicle: water): 155 % of control and 179 % of control
- T/C (dose: 1.67 mg/kg/injection, schedule: Q04DX003 (ip), vehicle: saline): 161 % of control
- T/C (dose: 2.4 mg/kg/injection, schedule: Q04DX003 (ip), vehicle: water): 155 % of control and 206 % of control
- T/C (dose: 2.9 mg/kg/injection, schedule: Q01DX001 (ip), vehicle: water): 122 % of control
- T/C (dose: 4.0 mg/kg/injection, schedule: Q04DX003 (ip), vehicle: water): 87 % of control
- T/C (dose: 648.0 micrograms/kg/injection, schedule: Q04DX003 (ip), vehicle: saline): 163 % of control
- T/C (dose: 1080.0 micrograms/kg/injection, schedule: Q04DX003 (ip), vehicle: saline): 167 % of control
- T/C (dose: 1800.0 micrograms/kg/injection, schedule: Q04DX003 (ip), vehicle: saline): 156 % of control and 182 % of control
- T/C (dose: 3000.0 micrograms/kg/injection, schedule: Q04DX003 (ip), vehicle: saline): 166 % of control and 179 % of control

SMILES: CN(C)CCCN1c2ccccc2Sc2cnccc21
- T/C [1]: 115 % of control
- T/C [2]: 93 % of control
- T/C [3]: 115 % of control

SMILES: CCCCOC(=O)C1C(C(=O)OCCCC)C2(Cl)C(Cl)=C(Cl)C1(Cl)C2(Cl)Cl (stereo not drawn)
- T/C [4]: 114 % of control
- T/C [5]: 116 % of control
- T/C [6]: 113 % of control

SMILES: O=S(=O)(O)c1ccc(-c2c3nc(c(-c4ccc(S(=O)(=O)O)cc4)c4ccc([nH]4)c(-c4ccc(S(=O)(=O)O)cc4)c4nc(c(-c5ccc(S(=O)(=O)O)cc5)c5ccc2[nH]5)C=C4)C=C3)cc1
- T/C [7]: 104 % of control
- T/C [8]: 105 % of control
- T/C [1]: 117 % of control
- T/C [2]: 110 % of control

SMILES: COc1cc(NS(=O)(=O)c2ccc(C(C)=O)cc2)nc(OC)n1
- T/C [4]: 100 % of control
- T/C [5]: 100 % of control
- T/C [6]: 93 % of control

SMILES: NCCCCS(=O)(=O)Nc1ccc(Nc2c3ccccc3nc3cc([N+](=O)[O-])ccc23)cc1
- T/C (dose: 50.0 mg/kg/injection, schedule: Q01DX001 (ip), vehicle: saline sonified): 97 % of control
- T/C (dose: 100.0 mg/kg/injection, schedule: Q01DX001 (ip), vehicle: saline sonified): 105 % of control
- T/C (dose: 200.0 mg/kg/injection, schedule: Q01DX001 (ip), vehicle: saline sonified): 113 % of control

SMILES: C=C1CCN(c2ccccc2)C1=O
- T/C (dose: 4.0 mg/kg/injection, schedule: Q01DX009 (ip), vehicle: saline + alcohol): 96 % of control
- T/C (dose: 8.0 mg/kg/injection, schedule: Q01DX009 (ip), vehicle: saline + alcohol): 116 % of control
- T/C (dose: 16.0 mg/kg/injection, schedule: Q01DX009 (ip), vehicle: saline + alcohol): 112 % of control
- T/C (dose: 64.0 mg/kg/injection, schedule: Q01DX009 (ip), vehicle: saline + alcohol): 107 % of control

SMILES: CCC[P+](c1ccccc1)(c1ccccc1)c1ccccc1
- T/C (dose: 2.0 mg/kg/injection, schedule: Q01DX009 (ip), vehicle: saline): 96 % of control
- T/C (dose: 4.0 mg/kg/injection, schedule: Q01DX009 (ip), vehicle: saline): 98 % of control
- T/C (dose: 8.0 mg/kg/injection, schedule: Q01DX009 (ip), vehicle: saline): 115 % of control
- T/C (dose: 16.0 mg/kg/injection, schedule: Q01DX009 (ip), vehicle: saline): 115 % of control
- T/C (dose: 32.0 mg/kg/injection, schedule: Q01DX009 (ip), vehicle: saline): 108 % of control

SMILES: CC(=O)CC(=O)Nc1cc(Cl)ccc1C
- T/C [9]: 105 % of control
- T/C [4]: 92 % of control
- T/C [5]: 94 % of control

SMILES: CC(C)CCC1(CCBr)C(=O)NC(=Nc2ccccc2)NC1=O (stereo not drawn)
- T/C [10]: 86 % of control
- T/C [11]: 106 % of control
- T/C [12]: 96 % of control
- T/C [13]: 96 % of control

SMILES: O=C(Nc1ccccc1F)Nc1ccccc1Cl
- T/C (dose: 25.0 mg/kg/injection, schedule: Q01DX009 (ip), vehicle: Klucel (hydroxypropylcellulose) (HPC)): 96 % of control
- T/C [9]: 92 % of control
- T/C [4]: 92 % of control
- T/C [5]: 95 % of control

SMILES: CC12COC(=O)CC1CCC1C2CCC2(C)C1CCC2(C)O (stereo not drawn)
- T/C [11]: 94 % of control
- T/C [12]: 94 % of control
- T/C [13]: 88 % of control

SMILES: c1ccc2cc(-c3csc4ccccc34)ccc2c1
- T/C [14]: 91 % of control
- T/C [15]: 97 % of control
- T/C [16]: 102 % of control

SMILES: CSCCC(N)C(=O)O (stereo not drawn)
- T/C (dose: 40.0 mg/kg/injection, schedule: Q01DX009 (ip), vehicle: saline with Tween-80): 103 % of control and 106 % of control
- T/C (dose: 80.0 mg/kg/injection, schedule: Q01DX009 (ip), vehicle: saline with Tween-80): 102 % of control and 108 % of control
- T/C (dose: 160.0 mg/kg/injection, schedule: Q01DX009 (ip), vehicle: saline with Tween-80): 113 % of control and 118 % of control
- T/C (dose: 320.0 mg/kg/injection, schedule: Q01DX009 (ip), vehicle: saline with Tween-80): 94 % of control and 100 % of control

SMILES: CCOC(=O)CCC(NC(=O)c1ccc(NCc2ccc3nc(N)nc(N)c3c2C)cc1)C(=O)OCC (stereo not drawn)
- T/C (dose: 0.01 mg/kg/injection, schedule: Q01DX009 (ip), vehicle: saline + alcohol): 108 % of control
- T/C (dose: 0.02 mg/kg/injection, schedule: Q01DX009 (ip), vehicle: saline + alcohol): 102 % of control
- T/C (dose: 0.03 mg/kg/injection, schedule: Q01DX009 (ip), vehicle: saline + alcohol): 105 % of control
- T/C (dose: 0.06 mg/kg/injection, schedule: Q01DX009 (ip), vehicle: saline + alcohol): 93 % of control
- T/C (dose: 0.11 mg/kg/injection, schedule: Q01DX009 (ip), vehicle: saline + alcohol): 91 % of control

SMILES: CCOC(=O)C(Cc1ccc(O)cc1)NP(=O)(OCCCl)OCCCl (stereo not drawn)
- T/C [15]: 86 % of control
- T/C [16]: 91 % of control

SMILES: O=C1NC2(CCCCC2)NC12CCCCC2
- T/C [1]: 102 % of control
- T/C [2]: 97 % of control
- T/C [3]: 97 % of control
- T/C (dose: 150.0 mg/kg/injection, schedule: Q01DX009 (ip), vehicle: saline): 94 % of control
- T/C (dose: 225.0 mg/kg/injection, schedule: Q01DX009 (ip), vehicle: saline): 86 % of control

SMILES: COc1ccc(NC(=O)Oc2ccccc2-c2ccccc2)cc1
- T/C (dose: 8.0 mg/kg/injection, schedule: Q01DX009 (ip), vehicle: saline with Tween-80): 100 % of control
- T/C (dose: 12.0 mg/kg/injection, schedule: Q01DX009 (ip), vehicle: saline with Tween-80): 95 % of control
- T/C (dose: 12.5 mg/kg/injection, schedule: Q01DX009 (ip), vehicle: saline with Tween-80): 223 % of control
- T/C (dose: 18.0 mg/kg/injection, schedule: Q01DX009 (ip), vehicle: saline with Tween-80): 95 % of control
- T/C [10]: 199 % of control
- T/C [11]: 213 % of control

SMILES: CC1(C)C(C#N)C(=O)N=C(N)C1C(N)=O (stereo not drawn)
- T/C (dose: 12.0 mg/kg/injection, schedule: Q04DX003 (ip), vehicle: Klucel (hydroxypropylcellulose) (HPC)): 105 % of control
- T/C (dose: 25.0 mg/kg/injection, schedule: Q04DX003 (ip), vehicle: Klucel (hydroxypropylcellulose) (HPC)): 107 % of control
- T/C (dose: 50.0 mg/kg/injection, schedule: Q04DX003 (ip), vehicle: Klucel (hydroxypropylcellulose) (HPC)): 105 % of control
- T/C [14]: 86 % of control and 100 % of control
- T/C [15]: 91 % of control

SMILES: CC1CCCN(c2ccc([N+](=O)[O-])cc2[N+](=O)[O-])C1 (stereo not drawn)
- T/C [4]: 93 % of control
- T/C [6]: 100 % of control

SMILES: C1=C(c2ccccc2)CCC1
- T/C [2]: 97 % of control
- T/C [3]: 88 % of control

SMILES: CC(=O)OCCC/C(=C\c1ccc2ccccc2c1)[N+](=O)[O-]
- T/C [7]: 100 % of control
- T/C [8]: 95 % of control
- T/C [1]: 91 % of control
- T/C [2]: 95 % of control
- T/C [3]: 93 % of control

SMILES: CC(=O)SCCCCl
- T/C [11]: 108 % of control
- T/C [12]: 112 % of control
- T/C [13]: 97 % of control
